Biological target: T1, ACAT (Rattus norvegicus, UniProt Q7TQM4)
T1 construct: microsomes were separated from liver tissues to be used as an enzyme source; from tissue; host or cells: rat liver microsomes
T1 sequence (Q7TQM4 1-524): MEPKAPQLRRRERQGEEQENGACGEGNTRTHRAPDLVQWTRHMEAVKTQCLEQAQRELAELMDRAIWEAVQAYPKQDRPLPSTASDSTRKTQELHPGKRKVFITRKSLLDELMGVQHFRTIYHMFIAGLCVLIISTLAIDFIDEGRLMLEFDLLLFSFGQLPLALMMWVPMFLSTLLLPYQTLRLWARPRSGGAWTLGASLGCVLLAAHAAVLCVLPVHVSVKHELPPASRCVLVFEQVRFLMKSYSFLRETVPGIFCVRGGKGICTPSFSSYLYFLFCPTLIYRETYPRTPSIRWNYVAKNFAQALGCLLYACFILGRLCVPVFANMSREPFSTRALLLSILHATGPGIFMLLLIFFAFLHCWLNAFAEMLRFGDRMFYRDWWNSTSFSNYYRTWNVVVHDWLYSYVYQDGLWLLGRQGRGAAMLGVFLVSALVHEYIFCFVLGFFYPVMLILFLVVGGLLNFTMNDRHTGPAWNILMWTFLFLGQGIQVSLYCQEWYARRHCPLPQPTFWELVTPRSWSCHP
Test: ACAT inhibition in liver microsomes of fed rats
Assay type: biochemical
Details: liver microsomes of rats fed 0.1% compound, vs Control
Procedure: Activity of Tannin or gallic acid in ACAT Inhibition
To determine the effect of feeding tannin or gallic acid to rats on the activity of ACAT, microsomes were separated from liver tissues to be used as an enzyme source.
1 g each of the livers taken from each group of rats of Example 2 was homogenized in 5 ml of homogenization medium (0.1 M KH2 PO4, pH 7.4, 0.1 mM EDTA and 10 mM β-mercaptoethanol). The homogenate was centrifuged at 3,000xg for 15 min. at 4° C. and the supernatant thus obtained was centrifuged at 15,000xg for 15 min. at 4° C. to obtain a supernatant. The supernatant was put into an ultracentrifuge tube (Beckman) and centrifuged at 100,000 xg for 1 hour at 4° C. to obtain microsomal pellets, which were then suspended in 3 ml of the homogenization medium and centrifuged at 100,000 xg for 1 hour at 4° C. […] The protein concentration of the resulting suspension was determined by Lowry's method and then adjusted to 4 to 8 mg/ml. […]
200 μl of the resulting supernatant was put in a scintillation bottle and 4 ml of scintillation fluid (Lumac) was added thereto. The mixture was assayed for radioactivity with 1450 Microbeta liquid scintillation counter (Wallacoy, Finland). ACAT activity was calculated as picomoles of cholesteryl oleate synthesized per min. per mg protein (pmoles/min/mg protein) The result is shown in Table III.

Row | Compound | % Inhibition on ACAT activity [%]
1 | O=C(O)c1cc(O)c(O)c(O)c1 [Gallic acid, gallic acid] | 42.1
2 | tannin | 41.7
